# Assay results: patent US20250249025A1, “DRUG DELIVERY CARRIER UTILIZING PROPERTY OF D-ALLOSE BEING UPTAKEN BY CANCER CELL, DRUG DELIVERY METHOD, AND COMPOSITION FOR TREATING RENAL CELL CARCINOMA” (NATIONAL UNIVERSITY CORPORATION KAGAWA UNIVERSITY, priority 2019, published 2025)
# Experiments:
# [1] = system: human renal cell carcinoma cell line Caki-I; experiment: Rare sugar uptake experiment, sugar content in disrupted cell suspension of Caki-I; format: cell-based
# Experimental: (§1) An uptake amount of a rare sugar, which had been added to a medium, into carcinoma cells was analyzed using the cell lines of three types of cancers. As the rare sugar, four kinds, that is, D-allose, D-allulose (D-psicose), L-allulose (L-psicose), and allitol were used, while D-glucose and fructose were used as a monosaccharide which was not a rare sugar.
# (§2) Cells of each of the cell lines were cultured in RPMI-1640 media and during culturing, six sugars were each added to the resulting media and cultured. After culturing, an amount of each sugar taken up into the cells was analyzed. The medium to which no sugar was added during culturing was used as a control.
# (§3) Used were human bladder carcinoma cell lines (RT112, 253), and J82), human prostatic carcinoma cell lines (LNCa, Du145, and PC-3), and human renal cell carcinoma cell lines (ACHN, Caki-I, and Caki-II).
# (§4) After cells were cultured in RPMI-1640 (2000 mg D-glucose/L) media, the above monosaccharides and rare sugars were added to the resulting media, respectively. Described specifically, they were following seven combinations: RPMI-1640 alone (control), RPMI-1640+D-glucose, RPMI-1640+L-allulose, RPMI-1640+D-allulose, RPMI-1640+D-fructose, RPMI-1640+D-allose, and RPMI-1640+D-allitol. The final concentration of the sugar in the medium was adjusted to 10 mM and no sugar was added in the control.
# (§5) Five-ml portions of a 3.0×10^4 cells/ml cell suspension prepared using RPMI-1640 were seeded in dishes having a diameter of 6 cm (1.5×10^5 cells/dish) and cultured for 24 hours in the RPMI-1640 medium containing 2000 mg/l of D-glucose as a nutrient source. Twenty-four hours later, the media were changed to the culture solutions containing the monosaccharides and rare sugars described above in 2), respectively, followed by culturing for 48 hours.
# (§6) After culturing for 48 hours, the attached human carcinoma cells were mechanically separated and collected in a Spitz tube together with the culture solution and floating cells. After the supernatant formed by centrifugation (4° C., 1200 rpm, and 5 minutes) was removed to obtain cell pellets alone, 5 ml of a phosphate buffer physiological saline (PBS) was added for the purpose of washing to obtain a cell suspension of the cell pellets. A gain, the resulting cell suspension was centrifuged at 4° C. and 1200 rpm for 5 minutes and the supernatant was removed. To the cell pellets after washing was added 1 ml of pure water to suspend them therein. Ultrasonic disruption (intensity: 40%, 30 seconds) was then performed and the monosaccharide in the disrupted cell suspension was labeled with ABEE, followed by analysis by HPLC. From the area thus obtained, the sugar content in the cells was determined using a calibration curve. With respect to the ketose, two peaks were found after labeling with ABEE so that the sugar content in the cells was determined from the calibration curves of both peaks.
# [2] = system: human bladder carcinoma cell line 253J; experiment: Rare sugar uptake experiment, sugar content in disrupted cell suspension of 253J; format: cell-based
# Experimental: as §1, §2, §3, §4, §5, §6
# [3] = system: xenograft mouse model made using Caki-I; experiment: Change of tumor volume by intraperitoneal D-allose injection, Caki-I xenograft mouse model; format: in vivo, mice
# Experimental: (§7) The experiment of the present example used two human renal cell carcinoma cell lines (Caki-I and ACHN). Each cell was cultured under the wet environment of 37° C. and 5% CO2 by using a RPMI-1640 culture solution (2000 mg D-glucose/L) containing a 10% fetal calf serum, a HEPES buffer, and penicillin-streptomycin.
# (§8) With respect to a renal cell carcinoma xenograft mouse model, a 1.0×10^5 cells/ml of a cell suspension was obtained by adjusting the cultured cells with a MEM culture solution and then 0.1 ml of the resulting suspension was injected into the femoral subcutaneous tissue of Female athymic nude mice (BALB/c-nu/nu, 6-week-old). After checking that the tumor volume was 200 mm^3 or more one week after the injection, the mice were provided for the experiment thereafter.
# (§9) The day when the tumor size of the renal cell carcinoma xenograft mouse models became 200 mm^3 or more was called day 0 and the intraperitoneal injection of a D-allose-containing solution was started from day 1. The solution injected is 0.4 mL of physiological saline or a solution obtained by dissolving 100 mg/kg or 400 mg/kg of D-allose in 0.4 mL physiological saline. The resulting solution was intraperitoneally injected into three groups of mice (Control, 100 mg/kg of D-allose, and 400 mg/kg of D-allose) once a day for 5 weeks in total. The body weight of the mice and the long and short diameters of the tumor were measured over time twice a week. It is to be noted that the tumor volume was obtained as a product of long diameter×short diameter×short diameter of the tumor×0.5. On day 35 after the intraperitoneal injection was started, the tumor as well as the liver and kidney were excised from the mice and provided for the experiment performed thereafter.
# [4] = system: human prostate carcinoma cell line Du145; experiment: Rare sugar uptake experiment, sugar content in disrupted cell suspension of Du145; format: cell-based
# Experimental: as §1, §2, §3, §4, §5, §6
# ACHN tumor tissue = experiment: Tumor tissue histology (necrosis area, nuclear fission), ACHN xenograft mouse model; format: in vivo, mice; conditions: day 35
# Experimental: as §7, §8, §9
# The tissue of the excised tumor, kidney, and liver was fixed with a 4% paraformaldehyde phosphate buffer, embedded with paraffin, and sliced into a 4-μm thick section. The resulting sliced section was stained with hematoxylin and eosin and evaluated by a medical specialist in pathology. The influence of D-allose on the tumor tissue was evaluated by a necrosis area (%) and an image of the number of nuclear fissions (Cells/HPF). It is to be noted that the necrosis area was measured using an image recording software Nikon NIS—Elements D and figures after the decimal point were omitted. On the other hand, the number of nuclear fissions was obtained as an average of those of three fields of view and figures after the decimal point were also omitted. The anti-tumor effect of D-allose, more specifically, necrosis area and the number of nuclear fissions in the renal cell carcinoma xenograft mouse model are shown in Table 10.
# [5] = Fundamental safety tests (mutagenicity, biodegradability, oral acute toxicity, skin and eye primary irritation); conditions: conducted by a designated agency at the inventors' request
# From the text: With respect to the verification of the safety of D-allose necessary for the use of it as a pharmaceutical ingredient, it was expectable that it was safe because a rare sugar was a monosaccharide present in nature, though its amount was trace. A mutagenicity test, a biodegradability test, and three acute toxicity tests (oral acute toxicity test, skin primary irritation test, and eye primary irritation test) have been determined as the most fundamental safety tests. The present inventors asked a designated agency to conduct the fundamental safety tests of D-allose.
# [6] = 100 mg/kg intraperitoneal once a day
# [7] = 400 mg/kg intraperitoneal once a day
structure (smiles),measurement,setting,value
O=C[C@H](O)[C@H](O)[C@H](O)[C@H](O)CO [D-allose],D-glucose content in cell,"[1]; Caki-I, named sugar added to RPMI-1640 at 10 mM, 48 hours, HPLC after ABEE labeling",2.1 µg
same,Content in cell of the added sugar,"[1]; human, 48 h, 10 mM",13.2 µg
same,D-glucose content in cell,"[2]; 253J, named sugar added to RPMI-1640 at 10 mM, 48 hours, HPLC after ABEE labeling",11.5 µg
same,Content in cell of the added sugar,"[2]; human, 48 h, 10 mM",0.0 µg
same,Tumor volume versus Control group,"[3]; 100 mg/kg intraperitoneal once a day, on and after day 31, Mann-Whitney U test",significantly smaller than that of the Control group
same,Tumor volume versus tumor volume before administration,"[3]; 400 mg/kg intraperitoneal once a day, on and after day 16",significantly smaller than the tumor volume before administration
same,Tumor volume versus Control group,"[3]; 400 mg/kg intraperitoneal once a day, on and after day 16, Mann-Whitney U test",significantly smaller than that of the Control group
same,D-glucose content in cell,"[4]; Du145, named sugar added to RPMI-1640 at 10 mM, 48 hours, HPLC after ABEE labeling",16.2 µg
same,Content in cell of the added sugar,"[4]; human, 48 h, 10 mM",0.0 µg
same,Necrosis area,ACHN tumor tissue; [6],49%
same,Nuclear fission,ACHN tumor tissue; [6],1.2 Cells/HPF
same,Necrosis area,ACHN tumor tissue; [7],69%
same,Nuclear fission,ACHN tumor tissue; [7],0.9 Cells/HPF
same,Result of fundamental safety tests,[5],no safety problems
